{"source": "patent US10988812B2", "about": "“Fusion genes associated with progressive prostate cancer” (UNIVERSITY OF PITTSBURGH - OF THE COMMONWEALTH SYSTEM OF …, priority 2013, dated 2021)", "assay_type_in_all_cases": "cell-based, human", "key": {"[1]": {"test_system": "PC3 cells containing TMEM135-CCDC67 breakpoint", "test": "Ganciclovir killing of PC3 cells after genome editing that integrates HSV-1 TK at the TMEM135-CCDC67 breakpoint", "from_the_text": "(§1) FIG. 28A-B. Genetic therapy targeting at TMEM135-CCDC67 genome breakpoint.\n(§2) The technique described above was applied to cells having the TMEM135-CCDC67 breakpoint. Since none of the fusion genes we identified so far was present in prostate cancer cell lines, we created a TMEM135-CCDC67 genome breakpoint that is identical to the prostate cancer sample we analyzed. The expression of the TMEM135-CCDC67 breakpoint was driven by a CMV promoter. Subsequently, we constructed a donor DNA that encompassed HSV-1 TK and the splicing sites of TMEM135 exon 14. When we co-transfected this donor DNA with a vector that expresses gRNA targeting at the TMEM135-CCDC67 breakpoint into PC3 cells containing this genome breakpoint, integration of TK into the genome was identified (FIG. 28A). […] This is remarkable in considering only 5-10% transfection efficiency using conventional liposome method. […] In light of this promising result, both TMEM135-CCDC67-TK cassette and NicKase-gRNATMEM135-CCDC67-BrkPt DNA are now in the process of packaging into Adenovirus. We will infect the recombinant virus into these cells in the future experiments. This will dramatically improve the delivery efficiency in the subsequent animal study and probably human."}, "[2]": {"test_system": "PC3 cells", "test": "Ganciclovir killing of PC3 cells after genome editing that integrates HSV-1 TK at the TMEM135-CCDC67 breakpoint", "details": "PC3 cells without TMEM135-CCDC67 breakpoint, same treatment", "from_the_text": "as §1, §2"}, "[3]": {"test_system": "MAN2A1-FER transformed PC3 cells", "test": "Cell death of PC3 cells transformed with pCDNA4-MAN2A1-FER-FLAG/pCDNA6", "method": "FIG. 23. […] Prostate cancer cell line PC3 was transformed with pCDNA4-MAN2A1-FER-FLAG/pCDNA6. Expression of MAN2A1-FER was induced with 5 μg/mL tetracycline. Cells not treated with tetracycline nor any drug were used as background controls.\nThe second approach is to target EGFR activation by EGFR inhibitors. These include erlotinib, cetuximab, […], canertinib and […]. Many of these drugs were FDA approved and is widely used in a variety of human solid tumors. To interrogate the effectiveness of EGFR activation interruption in treating prostate cancer, we treated MAN2A1-FER transformed PC3 cells with canertinib."}}, "note": "Read-outs that look alike come from different tables or passages of the source."}
{"smiles": "Nc1nc(O)c2ncn(COC(CO)CO)c2n1", "note": "[ganciclovir]", "values": [{"measurement": "specific killing of TMEM135-CCDC67 breakpoint containing PC3 cells (FIG. 28B)", "setting": "[1]", "value": "specific killing"}, {"measurement": "cell death", "setting": "[2]", "value": "minimal cell death"}]}
{"smiles": "Cn1cnc2c(F)c(Nc3ccc(Br)cc3Cl)c(C(=O)NOCCO)cc21", "note": "[AZD6244]", "values": [{"measurement": "differential killing effect (MAN2A1-FER expressing versus not)", "setting": "[3]; MEK interception, data not shown", "value": "largely moderated and vanished"}]}
{"smiles": "C[C@@H](Oc1cc(-c2cnn(C3CCNCC3)c2)cnc1N)c1c(Cl)ccc(F)c1Cl", "note": "[Crisotinib]", "values": [{"measurement": "cell death", "setting": "[3]", "value": 31, "unit": "%"}, {"measurement": "cell death / killing of cells not expressing MAN2A1-FER", "setting": "[3]", "value": "hardly killed"}, {"measurement": "lowering of cancer killing EC50 by expression of MAN2A1-FER", "setting": "[3]", "value": "~100", "unit": "fold"}, {"measurement": "specific killing of MAN2A1-FER expressing cells (FIG. 23)", "setting": "[3]", "value": "specifically kills"}]}
{"smiles": "C=CC(=O)Nc1cc2c(Nc3ccc(F)c(Cl)c3)ncnc2cc1OCCCN1CCOCC1", "note": "[Canertinib]", "values": [{"measurement": "cell death / killing of cells not expressing MAN2A1-FER", "setting": "[3]; PC3 cells not expressing MAN2A1-FER (Tet-)", "value": "minimal"}, {"measurement": "specific killing of MAN2A1-FER expressing cells (FIG. 23)", "setting": "[3]; expression induced with 5 μg/mL tetracycline", "value": "specifically kills"}]}
